Assays:
[1] = system: blackgrass (ALOMY); test: Test J Compounds 2 and 6 alone and in combination with other herbicides, foliage spray; type: in vivo, Alopecurus myosuroides; design: key: 0 = no effect, 100 = complete control; settings: applied alone
Source text: Colby's Equation was used to calculate the expected additive herbicidal effect of the mixtures of Compound 6 with Harmony® Extra (i.e. a 2:1 mixture by weight of thifensulfuron-methyl and tribenuron-methyl). […]
Seeds of test plants consisting of barnyardgrass (ECHCG; Echinochloa crus-galli (L.) Beauv.), blackgrass (ALOMY; Alopecurus myosuroides Huds.), Surinam grass (BRADC; Urochloa decumbens (Staph) R. D. Webster, previously named Brachiaria decumbens Stapf), cocklebur (XANST, Xanthium strumarium L.), corn (ZEAMD, Zea mays L. cv. ‘Pioneer 33G26’), large crabgrass (DIGSA, Digitaria sanguinalis (L.) Scop.), giant foxtail (SETFA, Setaria faberi Herrm.), lambsquarters (CHEAL, Chenopodium album L.), morningglory (IPOCO, Ipomoea coccinea L.), pigweed (AMARE, Amaranthus retroflexus L.), velvetleaf (ABUTH, Abutilon theophrasti Medik.) wheat (TRZAS, Triticum aestivum L. cv. ‘Recital’) and wild oat (AVEFA, Avena fatua L.) were planted in Redi-Earth® planting medium (Scotts Company, 14111 Scottslawn Road, Marysville, Ohio 43041) comprising spaghnum peat moss and vermiculite. […] Also listed in Table J are the expected effects for the mixtures calculated using Colby's Equation.

[2] = system: corn (maize) cv. Pioneer 33G26; test: Test G safening on corn by naphthalic anhydride seed treatment, preemergence; type: in vivo, Zea mays
Source text: This test evaluated the safening of compounds of the invention on corn (maize; Zea mays L.) cv. ‘Pioneer 33G26’ by seed treatment with naphthalic anhydride (1,8-naphthalic anhydride). All corn seed had been first treated with fludioxonil and metaxyl applied at the manufacturer's recommended rate as per the Pioneer 33G26 label. Some of the corn seed were subsequently also treated with naphthalic anhydride as a 1% by weight seed dressing. The corn seed were planted in pots containing pasteurized Sassafras sandy loam soil, and then treatments were applied preemergence the same day. Treatments were applied by spraying the test compounds formulated in a non-phytotoxic solvent mixture, using a flat fan nozzle and a spray volume of 280 L/ha. The treatments were triply replicated and the results subsequently averaged. The pots were placed on a greenhouse bench using a complete randomized block design except for the first replicate, which was unrandomized. The plants were grown in the greenhouse and watered as needed with a dilute nutrient solution containing 200 ppm of N. Illumination was daylight supplemented by artificial sources to maintaining a photoperiod of 16 hours. The temperature was maintained at 28±2° C. during the day and 23±2° C. at night. The plant response was visually rated 25 days after treatment in comparison to untreated controls using a scale of 0 to 100, with 0 representing no effect and 100 representing complete plant death.

[3] = system: wild buckwheat; test: Test F pre-/postemergence herbicide test; type: in vivo, Polygonum convolvulus
Source text: (§1) Seeds of plant species selected from annual blugrass (Poa annua L.), blackgrass (Alopecurus myosuroides Huds.), catchweed bedstraw (Gallium aparine L.), common chickweed (Stellaria media (L.) Vill./Cyr.), downy bromegrass (Bromus tectorum L.), green foxtail (Setaria viridis (L.) Beauv.), Italian ryegrass (Lolium multiflorum Lam.), kochia (Kochia scoparia (L.). Schrad.), lambsquarters (Chenopodium album L.), littleseed canarygrass (Phalaris minor Retz.), pigweed (Amaranthus retroflexus L.), Russian thistle (Salsola kali L. ssp. Ruthenica (Iljin) Soo), wild buckwheat (Polygonum convolvulus L.), wild mustard (Sinapis arvensis L.), wild oat (Avena fatua L.), windgrass (Apera spica-venti (L.) Beauv.), winter barley (Hordeum vulgare L.), and wheat (Triticum aestivum L.) were planted and treated preemergence with test chemicals formulated in a non-phytotoxic solvent mixture which included a surfactant.
(§2) At the same time, plants selected from these crop and weed species were treated with postemergence applications of some of the test chemicals formulated in the same manner. Plants ranged in height from 2 to 18 cm (1- to 4-leaf stage) for postemergence treatments. Treated plants and controls were maintained in a greenhouse for 12 to 14 days, after which time all species were compared to controls and visually evaluated. Plant response ratings, summarized in Table F, are based on a scale of 0 to 100 where 0 is no effect and 100 is complete control. A dash (-) response means no test result.

[4] = system: downy bromegrass; test: Test F pre-/postemergence herbicide test; type: in vivo, Bromus tectorum
Source text: as §1, §2

CCn1nc(C(C)(C)C)cc1C(=O)Nc1cc(C(=O)N(C)C)ccc1F [Compound 6, N-[5-[(dimethylamino)carbonyl]-2-fluorophenyl]-3-(1,1-dimethylethyl)-1-ethyl-1H-pyrazole-5-carboxamide]
ALOMY Obsd. ([1]; 62 g a.i./ha): 18
ALOMY Obsd. ([1]; 125 g a.i./ha): 33
Response of corn, With 1% naphthalic anhydride seed treatment ([2]; 62 g a.i./ha): 60
Response of corn, Without naphthalic anhydride seed treatment ([2]; 62 g a.i./ha): 65
Response of corn, With 1% naphthalic anhydride seed treatment ([2]; 125 g a.i./ha): 62
Response of corn, Without naphthalic anhydride seed treatment ([2]; 125 g a.i./ha): 68
Response of corn, With 1% naphthalic anhydride seed treatment ([2]; 250 g a.i./ha): 78
Response of corn, Without naphthalic anhydride seed treatment ([2]; 250 g a.i./ha): 88
Response of corn, With 1% naphthalic anhydride seed treatment ([2]; 500 g a.i./ha): 70
Response of corn, Without naphthalic anhydride seed treatment ([2]; 500 g a.i./ha): 92

CCn1nc(C(C)(C)C)cc1C(=O)Nc1cc(C(=O)OC(C)C)c(F)cc1F [Compound 248]
Plant response rating (0-100), Buckwheat, Wild ([3]; Postemergence, 31 g ai/ha): 50
Plant response rating (0-100), Buckwheat, Wild ([3]; Postemergence, 62 g ai/ha): 50
Plant response rating (0-100), Buckwheat, Wild ([3]; Postemergence, 125 g ai/ha): 50
Plant response rating (0-100), Buckwheat, Wild ([3]; Postemergence, 250 g ai/ha): 60
Plant response rating (0-100), Buckwheat, Wild ([3]; Preemergence, 31 g ai/ha): 30
Plant response rating (0-100), Buckwheat, Wild ([3]; Preemergence, 62 g ai/ha): 40
Plant response rating (0-100), Buckwheat, Wild ([3]; Preemergence, 125 g ai/ha): 45
Plant response rating (0-100), Buckwheat, Wild ([3]; Preemergence, 250 g ai/ha): 60
Plant response rating (0-100), Bromegrass, Downy ([4]; Postemergence, 31 g ai/ha): 40
Plant response rating (0-100), Bromegrass, Downy ([4]; Postemergence, 62 g ai/ha): 40
Plant response rating (0-100), Bromegrass, Downy ([4]; Postemergence, 125 g ai/ha): 40
Plant response rating (0-100), Bromegrass, Downy ([4]; Postemergence, 250 g ai/ha): 40
Plant response rating (0-100), Bromegrass, Downy ([4]; Preemergence, 31 g ai/ha): 35
Plant response rating (0-100), Bromegrass, Downy ([4]; Preemergence, 62 g ai/ha): 45
Plant response rating (0-100), Bromegrass, Downy ([4]; Preemergence, 125 g ai/ha): 50
Plant response rating (0-100), Bromegrass, Downy ([4]; Preemergence, 250 g ai/ha): 65
